Test results reported in PubChem BioAssay (NCI).
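1) Cells in 96-well plates. 2) Compound, 48 h, 5 concentrations. 3) Linear interpolation between surrounding doses. 4) Unreached endpoint = highest concentration. TGI: concentration producing complete growth inhibition.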

Tests used:
Test in all cases: NCI tumour cell line growth inhibition, 48 h
ACHN renal = tested on: ACHN renal
SNB-19 CNS = tested on: SNB-19 CNS
MALME-3M melanoma = tested on: MALME-3M melanoma
HCC-2998 colon = tested on: HCC-2998 colon
EKVX NSCLC = tested on: EKVX NSCLC
UO-31 renal = tested on: UO-31 renal
COLO 205 colon = tested on: COLO 205 colon
HT29 colon = tested on: HT29 colon
NCI-H460 lung = tested on: NCI-H460 lung
A549 NSCLC = tested on: A549 NSCLC
NCI-H226 lung = tested on: NCI-H226 lung
HOP-92 NSCLC = tested on: HOP-92 NSCLC
SF-295 CNS = tested on: SF-295 CNS
A498 renal = tested on: A498 renal
LOX IMVI melanoma = tested on: LOX IMVI melanoma
SK-MEL-28 melanoma = tested on: SK-MEL-28 melanoma
HCT-15 colon = tested on: HCT-15 colon
SF-539 CNS = tested on: SF-539 CNS
M14 melanoma = tested on: M14 melanoma
UACC-257 melanoma = tested on: UACC-257 melanoma
U251 CNS = tested on: U251 CNS
OVCAR-4 ovarian = tested on: OVCAR-4 ovarian
RPMI-8226 leukemia = tested on: RPMI-8226 leukemia
RXF 393 renal = tested on: RXF 393 renal
SK-OV-3 ovarian = tested on: SK-OV-3 ovarian
SK-MEL-5 melanoma = tested on: SK-MEL-5 melanoma
SK-MEL-2 melanoma = tested on: SK-MEL-2 melanoma
NCI-H23 lung = tested on: NCI-H23 lung
KM12 colon = tested on: KM12 colon
RXF-631 renal = tested on: RXF-631 renal
HCT-116 colon = tested on: HCT-116 colon
DLD-1 colon = tested on: DLD-1 colon
NCI-H522 lung = tested on: NCI-H522 lung
SNB-78 CNS = tested on: SNB-78 CNS
SR leukemia = tested on: SR leukemia
SW-620 colon = tested on: SW-620 colon
LXFL 529 NSCLC = tested on: LXFL 529 NSCLC
M19-MEL melanoma = tested on: M19-MEL melanoma
SF-268 CNS = tested on: SF-268 CNS
CAKI-1 renal = tested on: CAKI-1 renal
SN12C renal = tested on: SN12C renal
IGROV1 ovarian = tested on: IGROV1 ovarian
SNB-75 CNS = tested on: SNB-75 CNS
OVCAR-3 ovarian = tested on: OVCAR-3 ovarian
OVCAR-8 ovarian = tested on: OVCAR-8 ovarian
DMS 114 small cell lung = tested on: DMS 114 small cell lung
OVCAR-5 ovarian = tested on: OVCAR-5 ovarian
DMS 273 small cell lung = tested on: DMS 273 small cell lung
HOP-62 NSCLC = tested on: HOP-62 NSCLC
KM20L2 colon = tested on: KM20L2 colon
HL-60(TB) leukemia = tested on: HL-60(TB) leukemia
786-0 renal = tested on: 786-0 renal
K-562 leukemia = tested on: K-562 leukemia
MOLT-4 leukemia = tested on: MOLT-4 leukemia
UACC-62 melanoma = tested on: UACC-62 melanoma
XF 498 CNS = tested on: XF 498 CNS
TK-10 renal = tested on: TK-10 renal
CCRF-CEM leukemia = tested on: CCRF-CEM leukemia
HOP-18 NSCLC = tested on: HOP-18 NSCLC

NC(=O)COc1ccccc1
TGI (ACHN renal): > 100 µM | TGI (SNB-19 CNS): > 100 µM | TGI (MALME-3M melanoma): > 100 µM | TGI (HCC-2998 colon): > 100 µM | TGI (EKVX NSCLC): > 100 µM | TGI (UO-31 renal): > 100 µM | TGI (COLO 205 colon): > 100 µM | TGI (HT29 colon): > 100 µM | TGI (NCI-H460 lung): > 100 µM | TGI (A549 NSCLC): > 100 µM | TGI (NCI-H226 lung): > 100 µM | TGI (HOP-92 NSCLC): > 100 µM | TGI (SF-295 CNS): > 100 µM | TGI (A498 renal): > 100 µM | TGI (LOX IMVI melanoma): > 100 µM | TGI (SK-MEL-28 melanoma): > 100 µM | TGI (HCT-15 colon): > 100 µM | TGI (SF-539 CNS): > 100 µM | TGI (M14 melanoma): > 100 µM | TGI (UACC-257 melanoma): > 100 µM | TGI (U251 CNS): > 100 µM | TGI (OVCAR-4 ovarian): > 100 µM | TGI (RPMI-8226 leukemia): > 100 µM | TGI (RXF 393 renal): > 100 µM | TGI (SK-OV-3 ovarian): > 100 µM | TGI (SK-MEL-5 melanoma): > 100 µM | TGI (SK-MEL-2 melanoma): > 100 µM | TGI (NCI-H23 lung): > 100 µM | TGI (KM12 colon): > 100 µM | TGI (RXF-631 renal): > 100 µM | TGI (HCT-116 colon): > 100 µM | TGI (DLD-1 colon): > 100 µM | TGI (NCI-H522 lung): > 100 µM | TGI (SNB-78 CNS): > 100 µM | TGI (SR leukemia): > 100 µM | TGI (SW-620 colon): > 100 µM | TGI (LXFL 529 NSCLC): > 100 µM | TGI (M19-MEL melanoma): > 100 µM | TGI (SF-268 CNS): > 100 µM | TGI (CAKI-1 renal): > 100 µM | TGI (SN12C renal): > 100 µM | TGI (IGROV1 ovarian): > 100 µM | TGI (SNB-75 CNS): > 100 µM | TGI (OVCAR-3 ovarian): > 100 µM | TGI (OVCAR-8 ovarian): > 100 µM | TGI (DMS 114 small cell lung): > 100 µM | TGI (OVCAR-5 ovarian): > 100 µM | TGI (DMS 273 small cell lung): > 100 µM | TGI (HOP-62 NSCLC): > 100 µM | TGI (KM20L2 colon): > 100 µM | TGI (HL-60(TB) leukemia): > 100 µM | TGI (786-0 renal): > 100 µM | TGI (K-562 leukemia): > 100 µM | TGI (MOLT-4 leukemia): > 100 µM | TGI (UACC-62 melanoma): > 100 µM | TGI (XF 498 CNS): > 100 µM | TGI (TK-10 renal): > 100 µM | TGI (CCRF-CEM leukemia): > 100 µM

CC1(C)C(=O)N(c2ccccc2)C(=O)N1c1nc2ccccc2[nH]1
TGI (ACHN renal): > 100 µM | TGI (SNB-19 CNS): > 100 µM | TGI (MALME-3M melanoma): > 100 µM | TGI (HCC-2998 colon): > 100 µM | TGI (EKVX NSCLC): > 100 µM | TGI (UO-31 renal): > 100 µM | TGI (COLO 205 colon): > 100 µM | TGI (HT29 colon): > 100 µM | TGI (NCI-H460 lung): > 100 µM | TGI (A549 NSCLC): > 100 µM | TGI (NCI-H226 lung): > 100 µM | TGI (HOP-92 NSCLC): > 100 µM | TGI (SF-295 CNS): > 100 µM | TGI (A498 renal): > 100 µM | TGI (LOX IMVI melanoma): > 100 µM | TGI (SK-MEL-28 melanoma): > 100 µM | TGI (HCT-15 colon): > 100 µM | TGI (M14 melanoma): > 100 µM | TGI (UACC-257 melanoma): > 100 µM | TGI (RPMI-8226 leukemia): > 100 µM | TGI (RXF 393 renal): > 100 µM | TGI (SK-OV-3 ovarian): > 100 µM | TGI (SK-MEL-5 melanoma): > 100 µM | TGI (SK-MEL-2 melanoma): > 100 µM | TGI (NCI-H23 lung): > 100 µM | TGI (HOP-18 NSCLC): > 100 µM | TGI (KM12 colon): > 100 µM | TGI (RXF-631 renal): > 100 µM | TGI (HCT-116 colon): > 100 µM | TGI (DLD-1 colon): > 100 µM | TGI (NCI-H522 lung): > 100 µM | TGI (SNB-78 CNS): > 100 µM | TGI (SR leukemia): > 100 µM | TGI (SW-620 colon): 36.3 µM | TGI (LXFL 529 NSCLC): > 100 µM | TGI (M19-MEL melanoma): > 100 µM | TGI (SF-268 CNS): > 100 µM | TGI (CAKI-1 renal): > 100 µM | TGI (SN12C renal): > 100 µM | TGI (IGROV1 ovarian): > 100 µM | TGI (SNB-75 CNS): > 100 µM | TGI (OVCAR-3 ovarian): > 100 µM | TGI (OVCAR-8 ovarian): > 100 µM | TGI (DMS 114 small cell lung): > 100 µM | TGI (OVCAR-5 ovarian): > 100 µM | TGI (DMS 273 small cell lung): > 100 µM | TGI (HOP-62 NSCLC): > 100 µM | TGI (KM20L2 colon): > 100 µM | TGI (HL-60(TB) leukemia): > 100 µM | TGI (786-0 renal): > 100 µM | TGI (K-562 leukemia): > 100 µM | TGI (MOLT-4 leukemia): > 100 µM | TGI (UACC-62 melanoma): > 100 µM | TGI (XF 498 CNS): > 100 µM | TGI (TK-10 renal): > 100 µM | TGI (CCRF-CEM leukemia): > 100 µM
